Results reported in patent US20090124622A1, “Medicament Containing a Thiazole Derivative as an Active Ingredient” (priority 2006, published 2009).

What was measured:
[1] = tested on: guinea pig delayed asthma model; assay: Guinea pig delayed asthma model; assay type: in vivo; details: Cavia porcellus, oral, 1 hour before OVA inhalation, read-out: ED50 (inhibition of delayed asthma reaction, AUC4-8hr of % sRaw/TV)
Description: Hartley male guinea pigs were purchased from SLC, and after quarantining them for 1 week, at the week when the qualantine was finished the first sensitization was carried out by antigen exposure. By using ultrasonic nebulizer (OMRON NE-U12, condition: Vapor amount: maximum, Air: small) 2% (w/v) ovalbumin (OVA, by Sigma-Aldrich) in saline solution was vaporized, and by disposing for 10 minutes, they were first sensitized. At sensitizing, the guinea pigs were fixed on a body holder cartridge for them (by M.I.P.S.), and they were set on disposal chamber holder for 8 guinea pigs (by M.I.P.S.). Additional sensitization was carried out 7 days after the first sensitization as well. […] Breath function was measured by a general breath function measurement system (by M.I.P.S.) using Double flow plestymograph method (Penny A. Hutson et al. Am Rev Respir Dis 1988 137, 548-557). The breath function was measured before reaction induction (pre-value), 5 minutes, 1, 2, 3, 4, 5, 6, 7, and 8 hours after completion of reaction induction. By using one of parameters, sRaw/TV (specific airway resistance/once breath) as an index of improvement of respiratory function, variation rate per individual of sRaw/TV (% sRaw/TV) against pre-value between each measured times was calculated. Plotting % sRaw/TV with time, Area Under the Curve (AUC4-8hr) from 4 hours to 8 hours after reaction induction was calculated. […]

[2] = tested on: mast cells derived from murine bone marrow; assay: Cytokine (TNF-α, IL-13) release from antigen-stimulated murine bone marrow-derived mast cells; assay type: cell-based, mouse; details: DNP-HSA 3 ng/ml, 4 hours
From the text: (§1) According to almost the same method as the method by Razin et al. (J. Immunol. 132, 1479-1486 (1984)), murine bone marrow cells were differentiated into mast cells. Namely, bone marrow cells from femur of a female BALB/c mouse (purchased from Charles River Japan) were collected, and cultured in RPMI 1640 culture medium, containing 10% […] FBS prepared by Invitrogen, and 50% WEHI-3 cell culture supernatant. After culture for more than three weeks and confirming differentiation into mast cells under microscope, the cells were subjected to the following experiments.
(§2) Mast cells were suspended in the concentration of 2×10^6 cell/ml, and thereto was added 0.1 μg/ml anti-mouse DNP-Age antibody (SPE7, by Sigma-Aldrich). The cell suspension was incubated overnight in a CO2 incubator (5% CO2, 37° C.), and passively sensitized. […] After terminating the reaction by putting the plate on ice, histamine concentration of the supernatant was measured. […]
This experiment was conducted in almost the same method as the experiment on histamine release except that the final concentration of antigen (DNP-HSA) was 3 ng/ml, and reaction hours after addition of the antigen were 4 hours. The concentrations of TNF-α, and IL-13 in the supernatant were measured by using Enzyme-linked immunoassay kit (Quantikine (reg. trademark) Mouse TNF-α/TNFSF1A and IL-13 Immunoassay, by R&D systems).

[3] = tested on: mast cells derived from murine bone marrow; assay: Cys-LT release from antigen-stimulated murine bone marrow-derived mast cells; assay type: cell-based, mouse; details: DNP-HSA 10 ng/ml; IgE-sensitized mast cells
From the text: as §1, §2
This experiment was conducted in the almost same method as the experiment of histamine release except that the final concentration of antigen (DNP-HSA) was 10 ng/ml. The concentration of […] in supernatant was measured by using Cysteinyl-Leukotriene EIA Kit (by Cayman Chemical).

guinea pig eosinophiles = assay: Release of prostaglandin D2 and thromboxane B2 from PAF-induced guinea pig eosinophiles; assay type: cell-based; details: PAF C-16 10^-7M, 10 minutes
Description: In accordance with almost the same as the method of Sugasawa et al. (Agents and Actions 37, 233-237 (1992)), eosinophiles were separated and purified from abdominal of a male Hartley guinea pig (from SLC) and the cell concentration was adjusted to 1.25×10^7 cell/ml with modified hanks solution. The cell suspension (80 μl) were added to a 96-well culture plate (by Asahi-techno-glass Co. Ltd.), and then a test sample in DMSO solution or 2.5% DMSO solution only (10 μl) was added. After the plate was preincubated in a CO2 gas incubator for 10 minutes (5% CO2, at 37° C.), thereto was added Platelet Activating Factor (PAF C-16, by Cayman Chemical) 10 μl (final concentration of PAF C-16: 10−7M), and the mixture was further incubated in a CO2 gas incubator for 10 minutes. The concentrations of thromboxane B2 and prostaglandin in the supernatant were measured by using immunoassay kit (Thromboxane B2 EIA kit, Prostaglandin D2-MOX EIA kit, by Cayman Chemical).

[4] = tested on: guinea pig rhinitis model; assay: Inflammatory mediators (TNF, LTE4) in nasal cavity lavage fluid of guinea pig rhinitis model; assay type: in vivo; details: 8 hours after antigen nasal challenge
Description: Eight hours after antigen nasal challenge, by intraperitoneally administering pentobarbital sodium (Nembutal (reg. trade name), by Dainippon Sumitomo Pharma) 30 mg/body weight (kg) to anesthetize, the animal was fixed at the back. Opening bronchial, a cannula was inserted into a lung site to continue breath, and fixed by knotting. After stopping the channel of oral cavity and nasal cavity, from a part of opened bronchia to a side of nasal cavity a cannula was inserted, and knotted, and to the cannula was connected syringe pump. A saline solution was refluxed in the nasal cavity at flow speed (1 ml/minute) for 10 minutes, and the refluxed solution was recovered to get nasal cavity lavage fluid, NCLF). NCLF was centrifuged (1710.5×g (3000 rpm), 4° C., 10 minutes), and the supernatant was freezed at −80° C., and subjected to experiment of Example 5.
The supernatant of NCLF obtained in Example 4 was freezed at −80° C. and preserved. After thawing the sample, the concentration of LTE4 was measured by immuno assay kit (Leukotriene E4 EIA kit, by Cayman Chemical). The concentration of TNF was measured by bioassay method using L929 cells (from Dainippon Sumitomo Pharma) (David H., et al., J. Allergy Clin. Immunol. 89, 958-967 (1992)). Using recombinant human TNF-α (by PeproTech) as a standard, the result was shown by potency of human TNF-α cytotoxicity.

[5] = tested on: guinea pig rhinitis model; assay: Nasal cavity resistance change (sRaw) in guinea pig rhinitis model; assay type: in vivo; details: oral
Description: Referring to the report (74th Japanese Pharmacological Society (2001), Abstract number P-258, Establishment delayed rhinitis model by a guinea pig and effect of polysulfonic acidified hyaluronic acid, Masaki Matsudo, Junichi Fuchigami et al.), the following evaluation was conducted.
A saline solution (1 ml) containing OVA (50 mg) and aluminum hydroxide gel (1 mg) (by PIERCE) was percuteneously administered to a male Hartley guinea pig (from Kyudo Co. Ltd.) on back collum to make active sensitization.
SMP-028 was orally administered for 15 days starting from sensitization once a day (5 ml/body weight (kg)). The drug was orally administered before 1 hour on the sensitized day or on the antibody-challenged day. To saline solution challenged group (saline group) and control group was orally administered 0.5% MC as well. To dexamethasone group (dex. group) was orally administered the drug before 16 hours and 2 hours of antibody challenge. […]
By using a general respiratory function analysis system (PULMOS-I, by M.I.P.S), nasal cavity resistance of guinea big under palinesthesia was measured in accordance with the method of Double flow plestymograph. Because antibody challenge region was restricted to nose part, sRaw which was analyzed by computer and outputted (specific airway resistance) was served as an index of nasal cavity resistance. Before antibody nasal challenge, 10 minutes, 2, 3, 4, 5, 6 and 7 hours after the challenge, each sRaw per animal was once measured, and average of 100 breathes was made sRaw at each measured time. From the sRaw value by using analysis soft on a general respiratory function analysis system (WinPUL13 ver. 1.21) and using the calculation formula (sRaw increased rate (%) during each measuring times=100×(sRaw−sRaw before challenge during each measuring times)/sRaw before challenge), sRaw change rate was calculated. […] AUC3-7hr was calculated by trapezoid (echelon) method. Furthermore, from IAR and LAR in medium control group and each test group, inhibiting rate (%) on each test group against medium control group was calculated.

[6] = tested on: mast cells derived from murine bone marrow; assay: Histamine release from antigen-stimulated murine bone marrow-derived mast cells; assay type: cell-based, mouse; details: DNP-HSA 100 ng/ml, 20 minutes; IgE-sensitized mast cells
From the text: as §1
Mast cells were suspended in the concentration of 2×10^6 cell/ml, and thereto was added 0.1 μg/ml anti-mouse DNP-Age antibody (SPE7, by Sigma-Aldrich). The cell suspension was incubated overnight in a CO2 incubator (5% CO2, 37° C.), and passively sensitized. […] The cell suspension (80 μl) were added to a 96-well culture plate (by Asahi-techno-glass Co. Ltd.), and then a test sample in DMSO solution or 2.5% DMSO solution only (10 μl) was added. After the plate was reinsulated in a CO2 incubator for 10 minutes, to stimulate, 10 μl of 1 μg/ml of antibody (DNP-HSA, by Sigma-Aldrich, final concentration of antigen 100 ng/ml) was added to each well. […] After terminating the reaction by putting the plate on ice, histamine concentration of the supernatant was measured. […]

[7] = once a day for 15 days, OVA nasal challenge

## CNC(=O)NCCn1c(-c2ccc(N3CCOCC3)cc2)csc1=Nc1ccc(F)cc1 [Compound 2, reference compound]
[1]
  ED50: 0.69 mg/kg

## CNC(=O)NCCn1c(-c2ccc(N3CCOCC3)cc2)csc1=Nc1cccc(F)c1 [SMP-028, N-{2-[2-[(3-Fluorophenyl)imino]-4-(4-morpholin-4-ylphenyl)-1,3-thiazol-3(2H)-yl]ethyl}-N′-methylurea]
[2]
  release of IL-13 from mast cells: inhibited
  release of TNF-α from mast cells: inhibited
[3]
  release of Cys-LT from mast cells: inhibited
[1]
  ED50: 0.44 mg/kg
Guinea pig eosinophiles
  release of prostaglandin D2 from eosinophiles: concentration-dependently inhibited
  release of thromboxane B2 from eosinophiles: concentration-dependently inhibited
[4]; EIA
  production of LTE4 in nasal cavity (NCLF): showed a tendency and activity of inhibition
[4]; L929 bioassay
  production of TNF in nasal cavity (NCLF): showed a tendency and activity of inhibition
[5]; 30 mg/kg
  efficacy on immediate and delayed nasal congestion reaction compared with dexamethasone: efficacy comparative to dexamethasone
[5]; [7]
  delayed nasal congestion reaction (LAR, AUC3-7hr of sRaw increased rate): dose-dependently inhibited
  immediate nasal congestion reaction (IAR, sRaw increased rate 10 minutes after challenge): dose-dependently inhibited
[6]
  release of histamine from mast cells: inhibited
